Assays:
CRFR1 [1] = target: T1, CRFR1 (Homo sapiens, UniProt P34998); assay: cAMP accumulation in CHO cells stably transfected with CRFR1 and treated with CRF; type: cell-based
T1 construct: expressed in transfected cells
T1 sequence (P34998 24-415): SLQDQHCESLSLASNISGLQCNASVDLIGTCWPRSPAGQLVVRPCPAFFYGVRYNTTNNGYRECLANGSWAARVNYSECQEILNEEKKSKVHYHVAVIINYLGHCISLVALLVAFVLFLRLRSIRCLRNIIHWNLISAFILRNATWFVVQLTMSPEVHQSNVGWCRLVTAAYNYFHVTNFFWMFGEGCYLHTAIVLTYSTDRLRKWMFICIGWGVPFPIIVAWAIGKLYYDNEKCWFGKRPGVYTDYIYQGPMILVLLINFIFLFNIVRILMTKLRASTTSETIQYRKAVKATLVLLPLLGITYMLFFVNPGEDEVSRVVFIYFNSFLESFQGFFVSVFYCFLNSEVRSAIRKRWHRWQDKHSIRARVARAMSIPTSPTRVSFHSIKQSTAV
Text: (§1) In addition to inhibiting CRF receptor binding, a candidate's CRF receptor antagonist activity may be established by the ability of the compound to antagonize an activity associated with CRF. For example, CRF is known to stimulate various biochemical processes, including adenylate cyclase activity. Therefore, compounds may be evaluated as CRF antagonists by their ability to antagonize CRF-stimulated adenylate cyclase activity by, for example, measuring cAMP levels. The inhibition of CRF-stimulated adenylate cyclase activity, determined by the assay described by G. Battaglia et al., Synapse 1:572 (1987), provides an assay for determining a compound's ability to antagonize CRF activity. Accordingly, CRF receptor antagonist activity may be determined by assay techniques which generally include an initial binding assay followed by such a cAMP screening protocol.
(§2) Binding assays with cells expressing human CRFR1 are carried out as described in the Chen et al. P.N.A.S., supra. The affinities of test peptides for CRFR1 and CRFR2b stably expressed in CHO cells were determined by competitive displacement of ^125I-(Nle^21, Tyr^32) ovine CRF (for CRFR1) or of [^125I-Tyr^o-]Ucn (for CRFR2b) as described.

CRFR1 [2] = target: T1, CRFR1; assay: Competitive displacement binding assay, cloned hCRFR1 expressed in CHO cells
Text: A candidate CRFR2 ligand is also easily evaluated in a binding assay using known CRF receptors, such as that described in Perrin, M., et al., Endocrinology, 118, 1171–1179 (1986). CRF receptors and the details of binding assays are discussed later in this specification. […] One such representative binding assay utilizing CRF-R1 receptor is described in Chen, et al., P.N.A.S., 90, 8967–8971 (October 1993).
(§3) CRF receptors have now been cloned and are disclosed in the aforementioned Chen et al. article, in Perrin, M., et al., P.N.A.S, 92, 2969–2973 (March 1995), and in Lovenberg, T., et al., P.N.A.S., 92, 836–840 (January 1995). Binding affinity is a term used to refer to the strength of interaction between ligand and receptor. […] Ki (inhibitory binding affinity constant) is determined using a “standard” or “tracer” radioactive ligand and thus measures the displacement of the tracer from the receptor or binding protein; it is most properly expressed with reference to such tracer. However, so long as these assays are carefully performed under specific conditions with relatively low concentrations of receptor or the like, the calculated Ki will be substantially the same as its dissociation constant KD. […] It is particularly efficient to test for Ki because only a single tracer need be labelled, e.g. radioiodinated. […] Those reported hereinafter are derived using radioactively labeled [Tyr Glu^1, Nle^17]-Svg as a radioligand.
as §2

human CRFR2b = target: T2, human CRFR2b (Homo sapiens, UniProt Q13324); assay: Competitive displacement binding assay, stably transfected CHO cells expressing human CRFR2b
T2 construct: expressed in transfected cells
T2 sequence (Q13324 1-438 isoform Q13324-2): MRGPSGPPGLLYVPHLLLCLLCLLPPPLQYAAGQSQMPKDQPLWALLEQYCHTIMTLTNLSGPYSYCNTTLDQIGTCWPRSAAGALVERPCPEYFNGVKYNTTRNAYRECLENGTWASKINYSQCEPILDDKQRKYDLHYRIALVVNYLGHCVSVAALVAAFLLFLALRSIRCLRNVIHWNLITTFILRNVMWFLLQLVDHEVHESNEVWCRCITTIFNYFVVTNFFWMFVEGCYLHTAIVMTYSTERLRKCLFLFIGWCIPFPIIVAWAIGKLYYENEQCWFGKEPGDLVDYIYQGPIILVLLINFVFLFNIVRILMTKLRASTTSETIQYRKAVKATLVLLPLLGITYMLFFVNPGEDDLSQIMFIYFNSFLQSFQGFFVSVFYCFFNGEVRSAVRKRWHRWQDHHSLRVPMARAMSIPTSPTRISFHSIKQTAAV
Experimental: as §3, §2

CRFR2 = target: T3, CRFR2 (Homo sapiens, UniProt Q13324); assay: cAMP accumulation in CHO cells stably transfected with CRFR2 and treated with CRF; type: cell-based; conditions: CHO cells stably transfected with CRFR2, treated with CRF
T3 construct: expressed in transfected cells
T3 sequence (Q13324 1-438 isoform Q13324-2): T2 sequence (Q13324 1-438 isoform Q13324-2)
Text: as §1, with “protocol. […]” for “protocol.”

CRF receptors = assay: Intrinsic CRF activity of the antagonist; conditions: when administered at the highest dosage

In the case of CCCC[C@H](NC(=O)[C@H](CCCCN)NC(=O)[C@H](CCCNC(=N)N)NC(=O)[C@H](CC(C)C)NC(=O)[C@](C)(CC(C)C)NC(=O)[C@H](Cc1c[nH]cn1)NC(=O)[C@@H](Cc1ccccc1)NC(C)=O)C(=O)N[C@H](C(=O)N[C@@H](CCC(=O)O)C(=O)N[C@H](C(=O)N[C@@H](CCC(=O)O)C(=O)N[C@@H](CCCCN)C(=O)N[C@@H](CCC(N)=O)C(=O)N[C@@H](CCC(=O)O)C(=O)N[C@@H](CCCCN)C(=O)N[C@@H](CCC(=O)O)C(=O)N[C@@H](CCCCN)C(=O)N[C@@H](CCC(N)=O)C(=O)N[C@@H](CCC(N)=O)C(=O)N[C@@H](C)C(=O)N[C@H]1CCC(=O)NCCCC[C@@H](C(=O)N[C@@H](CC(C)C)C(=O)N[C@@H](CC(C)C)C(=O)N[C@@H](CC(C)C)C(=O)N[C@@H](CC(=O)O)C(=O)N[C@@](C)(CC(C)C)C(=O)N[C@H](C(N)=O)[C@@H](C)CC)NC(=O)[C@H](CC(N)=O)NC(=O)[C@H](CC(N)=O)NC1=O)[C@@H](C)CC)[C@@H](C)CC [Example 1 cyclic peptide, (cyclo 31–34)[Ac-D-Phe^11, His^12, CML ^13,39, Nle^17, Glu^31, Lys^34]-sauvagine(11–40)], the “antagonism of CRF activity with respect to CRFR1 (cAMP accumulation)” value (CRFR1 [1]) is reported as “little or no effect”, the IC50 (CRFR1 [2]) is reported as > 0.5 µM and the Ki (CRFR1 [2]) is reported as ~1 µM. The Ki (human CRFR2b) was 0.0011 µM, the “antagonism of CRF activity with respect to CRFR2 (cAMP accumulation)” value (CRFR2) was “effectively antagonize CRF activity” and the “intrinsic CRF activity” value (CRF receptors) was “only minor intrinsic CRF activity”.
